Data from ChEMBL document CHEMBL4765464, “Discovery of BMS-986144, a Third-Generation, Pan-Genotype NS3/4A Protease Inhibitor for the Treatment of Hepatitis C Virus Infection” (J Med Chem, 2020).

Columns and labels:
Cytochrome P450 3A4 [1] = molecular target: T1, Cytochrome P450 3A4 (Homo sapiens, UniProt P08684); assay: Inhibition of human CYP3A4 in human pooled liver microsomes in presence of midazolam as substrate preincubated for 0 mins in presence of NADPH followed by addition of substrate by LC-MS/MS analysis; type: ADME
[2] = AUC in dog at 3 mg/kg, po or 1 mg/kg, iv; type: ADME, organism-based, Canis lupus familiaris; design: dose 3 mg/kg; conditions: in vivo
[3] = Clearance in cynomolgus monkey at 3 mg/kg, po or 1 mg/kg, iv; type: ADME, organism-based, Macaca fascicularis; conditions: in vivo
[4] = Selectivity index, ratio of IC50 for inhibition of HCV 1b NS3/4A protease to IC50 for inhibition of HCV 1b NS3/4A protease preincubated for 45 mins in presence of compound
Cytochrome P450 3A4 [5] = molecular target: T1, Cytochrome P450 3A4; assay: Inhibition of human CYP3A4 in human pooled liver microsomes at 0.002 to 40 uM in presence of midazolam as substrate preincubated in presence of NADPH followed by addition of substrate by LC-MS/MS analysis; type: ADME; conditions: TDE = time-dependent effect, dose 0.002-40 µM, time <=30 min
[6] = Drug concentration in rat liver at 5 mg/kg, po measured upto 24 hrs; type: ADME, organism-based; conditions: read-out: Ct
[7] = Inhibition of recombinant full length NS3/4A protease in Hepatitis C virus subtype 1b replicon infected in human HuH7 cells preincubated for 3 days followed by substrate addition and measured after 2 hrs by renilla luciferase reporter gene assay; type: cell-based; conditions: Huh-7
[8] = Inhibition of recombinant full length NS3/4A protease in Hepatitis C virus subtype 2a replicon infected in human HuH7 cells preincubated for 3 days followed by substrate addition and measured after 2 hrs by renilla luciferase reporter gene assay; type: cell-based; conditions: Huh-7
[9] = Inhibition of HCV 1a NS3/4A protease; design: species or system Hepatitis C virus subtype 1a
[10] = Selectivity index, ratio of IC50 for inhibition of HCV 2a NS3/4A protease to IC50 for inhibition of HCV 2a NS3/4A protease preincubated for 45 mins in presence of compound
[11] = Half-life in rat at 5 mg/kg, po or 1 mg/kg, iv; type: ADME, organism-based; conditions: in vivo
[12] = Inhibition of HCV 1a NS3/4A protease preincubated for 45 mins in presence of compound; design: species or system Hepatitis C virus subtype 1a
[13] = AUC in rat at 5 mg/kg, po or 1 mg/kg, iv; type: ADME, organism-based; design: dose 5 mg/kg; conditions: in vivo

T1 sequence (P08684 whole entry): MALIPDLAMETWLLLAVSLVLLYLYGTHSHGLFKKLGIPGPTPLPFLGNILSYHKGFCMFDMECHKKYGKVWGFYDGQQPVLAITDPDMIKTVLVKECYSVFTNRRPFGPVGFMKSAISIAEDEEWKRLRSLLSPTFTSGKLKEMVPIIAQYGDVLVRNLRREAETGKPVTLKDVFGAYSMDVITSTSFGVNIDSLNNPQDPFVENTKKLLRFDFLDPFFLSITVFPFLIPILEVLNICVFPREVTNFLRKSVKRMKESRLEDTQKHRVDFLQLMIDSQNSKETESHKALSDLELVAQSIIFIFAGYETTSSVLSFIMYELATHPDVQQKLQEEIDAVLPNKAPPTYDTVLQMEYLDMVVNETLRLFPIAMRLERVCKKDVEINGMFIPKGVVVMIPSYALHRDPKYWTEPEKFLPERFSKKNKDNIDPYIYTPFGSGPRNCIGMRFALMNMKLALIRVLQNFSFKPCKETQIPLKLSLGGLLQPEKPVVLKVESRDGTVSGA

For `CC[C@@H]1C[C@H](C)CC/C=C\[C@@H]2C[C@@]2(C(=O)NS(=O)(=O)C2(C)CC2)NC(=O)[C@@H]2C[C@@H](Oc3nccc4cc(OC)c(F)cc34)CN2C(=O)[C@H]1NC(=O)OC(C)(C)C(F)(F)F`, the IC50 (Cytochrome P450 3A4 [1]) was > 40000 nM, the AUC [2] was 81 µM·h and the clearance [3] was 9.3 mL/min/kg. The Selectivity Index [4] was 6, the “inhibition (INH)” value (Cytochrome P450 3A4 [5]) was “Tde” and the concentration at 24 h [6] was 5.83 µM. For the same compound, the EC50 [7] was 1.1 nM, the EC50 [8] was 1.4 nM and the IC50 [9] was 0.8 nM. For the same compound, the Selectivity Index [10] was 3.5, the half-life [11] was 9.3 h and the IC50 [12] was 0.2 nM. It also gave an AUC [13] of 241 µM·h.
